According to BindingDB's records for patent US12209085 (Sunshine Lake Pharma Co., 2025):

Columns and labels:
Assay in all cases: Inhibitory Activity Assay
[1] = target: Proto-oncogene tyrosine-protein kinase receptor Ret [V804M] (Human, UniProt P07949, V804M)
[2] = target: Proto-oncogene tyrosine-protein kinase receptor Ret (Homo sapiens, UniProt P07949)
[3] = target: Proto-oncogene tyrosine-protein kinase receptor Ret [M918T] (Homo sapiens, UniProt P07949, M918T)
[4] = target: Coiled-coil domain-containing protein 6/Proto-oncogene tyrosine-protein kinase receptor Ret (Homo sapiens, UniProt P07949)
[5] = target: Proto-oncogene tyrosine-protein kinase receptor Ret [V804L] (Homo sapiens, UniProt P07949, V804L)
Chain of Proto-oncogene tyrosine-protein kinase receptor Ret [V804L] (P07949 29-1114 V804L limits assumed): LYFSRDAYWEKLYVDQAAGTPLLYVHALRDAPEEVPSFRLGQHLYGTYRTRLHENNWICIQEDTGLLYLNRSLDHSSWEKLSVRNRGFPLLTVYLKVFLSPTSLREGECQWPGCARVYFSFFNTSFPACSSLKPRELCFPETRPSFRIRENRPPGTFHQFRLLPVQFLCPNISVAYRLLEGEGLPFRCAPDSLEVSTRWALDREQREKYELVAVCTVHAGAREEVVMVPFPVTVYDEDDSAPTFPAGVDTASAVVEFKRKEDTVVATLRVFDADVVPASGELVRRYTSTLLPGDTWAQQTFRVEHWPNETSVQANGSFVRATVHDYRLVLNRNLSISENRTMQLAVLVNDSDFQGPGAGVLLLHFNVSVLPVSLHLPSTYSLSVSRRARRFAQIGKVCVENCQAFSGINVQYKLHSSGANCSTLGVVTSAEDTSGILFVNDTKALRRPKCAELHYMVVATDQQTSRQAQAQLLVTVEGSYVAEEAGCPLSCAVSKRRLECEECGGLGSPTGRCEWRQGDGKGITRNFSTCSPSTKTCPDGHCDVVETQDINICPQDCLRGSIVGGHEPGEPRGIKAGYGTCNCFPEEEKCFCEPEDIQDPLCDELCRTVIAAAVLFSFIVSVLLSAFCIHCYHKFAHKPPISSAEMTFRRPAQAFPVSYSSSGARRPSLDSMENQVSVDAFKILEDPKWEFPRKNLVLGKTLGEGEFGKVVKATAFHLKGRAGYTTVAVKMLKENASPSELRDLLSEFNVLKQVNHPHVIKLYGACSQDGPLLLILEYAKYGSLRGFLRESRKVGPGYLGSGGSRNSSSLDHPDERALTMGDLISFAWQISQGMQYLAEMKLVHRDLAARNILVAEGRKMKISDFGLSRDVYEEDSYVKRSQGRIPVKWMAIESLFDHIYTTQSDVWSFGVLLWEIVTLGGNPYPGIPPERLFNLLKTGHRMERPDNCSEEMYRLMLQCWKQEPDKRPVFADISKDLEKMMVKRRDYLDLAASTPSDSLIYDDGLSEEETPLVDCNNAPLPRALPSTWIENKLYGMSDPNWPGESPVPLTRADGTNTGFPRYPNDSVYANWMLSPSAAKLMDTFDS

Chain of Proto-oncogene tyrosine-protein kinase receptor Ret [V804M] (P07949 29-1114 V804M limits assumed): as the sequence (P07949 29-1114 V804L limits assumed) above, with L776M counted along it
Chain of Proto-oncogene tyrosine-protein kinase receptor Ret (P07949 whole entry): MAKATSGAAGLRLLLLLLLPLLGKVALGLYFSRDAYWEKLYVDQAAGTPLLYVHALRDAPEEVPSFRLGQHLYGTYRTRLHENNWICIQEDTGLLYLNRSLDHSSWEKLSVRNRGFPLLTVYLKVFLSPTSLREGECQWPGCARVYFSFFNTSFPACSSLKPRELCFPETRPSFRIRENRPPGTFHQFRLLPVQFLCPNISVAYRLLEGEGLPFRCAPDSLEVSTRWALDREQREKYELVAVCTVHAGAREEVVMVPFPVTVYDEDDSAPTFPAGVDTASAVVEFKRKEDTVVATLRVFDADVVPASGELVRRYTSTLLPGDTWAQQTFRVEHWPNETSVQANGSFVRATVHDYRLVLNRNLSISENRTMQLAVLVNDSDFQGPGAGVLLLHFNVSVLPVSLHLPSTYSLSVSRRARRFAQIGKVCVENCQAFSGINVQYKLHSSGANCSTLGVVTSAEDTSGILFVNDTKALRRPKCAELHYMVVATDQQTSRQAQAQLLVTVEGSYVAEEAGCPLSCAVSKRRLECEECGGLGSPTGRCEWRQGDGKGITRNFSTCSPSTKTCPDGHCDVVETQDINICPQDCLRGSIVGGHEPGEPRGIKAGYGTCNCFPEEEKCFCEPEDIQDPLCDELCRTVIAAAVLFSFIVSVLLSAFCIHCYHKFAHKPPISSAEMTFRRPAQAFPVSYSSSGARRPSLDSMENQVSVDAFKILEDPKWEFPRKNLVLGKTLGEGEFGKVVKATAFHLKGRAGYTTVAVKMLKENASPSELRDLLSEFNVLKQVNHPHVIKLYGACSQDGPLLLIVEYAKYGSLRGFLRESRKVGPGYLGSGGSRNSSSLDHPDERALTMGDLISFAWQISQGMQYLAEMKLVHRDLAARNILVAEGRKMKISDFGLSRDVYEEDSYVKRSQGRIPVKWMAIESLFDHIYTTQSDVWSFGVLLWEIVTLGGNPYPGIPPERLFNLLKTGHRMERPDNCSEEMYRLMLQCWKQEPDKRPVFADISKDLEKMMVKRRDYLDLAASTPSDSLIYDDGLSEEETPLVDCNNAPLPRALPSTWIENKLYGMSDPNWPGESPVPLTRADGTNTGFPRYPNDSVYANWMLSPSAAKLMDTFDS
Chain of Coiled-coil domain-containing protein 6/Proto-oncogene tyrosine-protein kinase receptor Ret (P07949 whole entry, the tested form may be a part): as the sequence (P07949 whole entry) above
Chain of Coiled-coil domain-containing protein 6/Proto-oncogene tyrosine-protein kinase receptor Ret (Q16204 whole entry, further chain, the tested form may be a part): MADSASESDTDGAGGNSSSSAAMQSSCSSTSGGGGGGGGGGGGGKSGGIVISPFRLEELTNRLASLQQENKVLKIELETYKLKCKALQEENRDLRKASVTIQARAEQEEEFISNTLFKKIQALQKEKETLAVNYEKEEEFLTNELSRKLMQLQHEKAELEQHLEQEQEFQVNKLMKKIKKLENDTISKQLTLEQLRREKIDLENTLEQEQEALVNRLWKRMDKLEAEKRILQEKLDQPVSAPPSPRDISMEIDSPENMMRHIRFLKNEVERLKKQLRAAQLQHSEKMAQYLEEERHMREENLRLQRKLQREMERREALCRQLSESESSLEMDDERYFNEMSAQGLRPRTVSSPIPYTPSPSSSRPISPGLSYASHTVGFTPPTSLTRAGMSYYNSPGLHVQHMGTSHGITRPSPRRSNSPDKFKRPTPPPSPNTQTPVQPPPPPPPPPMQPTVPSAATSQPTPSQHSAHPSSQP
Chain of Proto-oncogene tyrosine-protein kinase receptor Ret [M918T] (P07949 29-1114 M918T limits assumed): as the sequence (P07949 29-1114 V804L limits assumed) above, with L776V, M890T counted along it

SMILES | IC50 [1] [nM] | IC50 [2] [nM] | IC50 [3] [nM] | IC50 [4] [nM] | IC50 [5] [nM]
C#CC#CCN1C2CC1CN(c1ccc(-c3cc(-c4cnn(C)c4)cn4ncc(C#N)c34)cn1)C2 [US12209085, Example 276] | 1.08 | 0.39 | – | – | –
C#Cc1cccc(C(=O)NC2CCN(c3ccc(-c4cc(-c5cnn(C)c5)cn5ncc(C#N)c45)cn3)CC2)c1 [US12209085, Example 268] | 30.8 | 2.69 | 1.92 | 3.16 | 2.35
C#Cc1ccc(CN2C3CC2CN(c2ccc(-c4cc(-c5cnn(C)c5)cn5ncc(C#N)c45)cn2)C3)cn1 [US12209085, Example 186] | 0.76 | 0.17 | – | – | –
C#Cc1ncc(CN2C3CC2CN(c2ccc(-c4cc(-c5cnn(C)c5)cn5ncc(C#N)c45)cn2)C3)cc1F [US12209085, Example 227] | 0.3 | 0.13 | – | – | –
